Data: US20240173289A1, “USE OF OXYMETHYL-MODIFIED DERIVATIVE OF QUERCETIN IN PREPARATION OF DRUG FOR INHIBITING TUMOR CELL PROLIFERATION” (ZHEJIANG UNIVERSITY, priority 2021, published 2024)
≈ marks a conversion by molar mass, not a printed value. Like-named read-outs stand apart in the source and are kept apart here.

Assays:
[1] = test system: liver cancer cell line HepG2; assay: in vitro cell proliferation inhibition (CCK-8); assay type: cell-based; conditions: 48 h incubation
Text: (§1) Osteosarcoma cell line 143B, HOS, and U2, liver cancer cell line HepG2, breast cancer cell line MDA-MB-231 and T47D, gastric cancer cell line AGS, BGC-823, and SGC-7901, cervical cancer cells Hela, lung cancer cells A549, intestinal cancer cells Caco2, mouse glioma cells BV-2, human prostate cancer cells PC3, human thyroid cancer cell line BCPAP, human normal liver cell line L02, human normal gastric cell line GES, human umbilical vein epithelial cells HUVEC, and human embryonic lung fibroblasts WI-38 were cultured in a DMEM medium containing 10% fetal bovine serum and 1×HEPES in a humid incubator (37° C., 5% CO2). The cells were passaged with trypsin-EDTA in logarithmic phase. Certain density of cells (AGS, T47D, Caco2, BCPAP, GES, HUVEC 1×10^5 cells per well; HepG2, MDA-MB-231, BGC-823, A549, PC3, L02 8×10^4 cells per well; 143B, HOS, U2, SGC-7901, Hela, BV-2, 5×10^4 cells per well; WI-38, 3×10^5 cells per well) were inoculated in a 96-well plate, and cultured for 24 h before treatment. After replacing a fresh medium, 12.5 mg/L to 400 mg/L of quercetin, quercetin 3-methyl ether, and quercetin 3,3′-dimethyl ether dissolved with DMSO were added into the medium (a final volume ratio was 0.1%, and the DMSO was used as a […]). After incubation for 48 h, a complete medium was replaced with a serum-free medium containing 10% CCK-8 reagent. The absorbance at 450 nm and 620 nm was measured separately after the cells were incubated for 1 h. Each experiment was repeated three times independently.
as §1, with “400 mg/L,” for “400 mg/L”, “of” for “of quercetin, quercetin 3-methyl ether, and”, “DMSO was” for “DMSO were”, “into a” for “into the”

[2] = test system: cervical cancer cells Hela; assay: in vitro cell proliferation inhibition (CCK-8); assay type: cell-based; conditions: 48 h incubation
Text: as §1
as §1, with “400 mg/L,” for “400 mg/L”, “of” for “of quercetin, quercetin 3-methyl ether, and”, “DMSO was” for “DMSO were”, “into a” for “into the”

[3] = test system: Osteosarcoma cell line U2; assay: in vitro cell proliferation inhibition (CCK-8); assay type: cell-based; conditions: 48 h incubation
Text: as §1
as §1, with “400 mg/L,” for “400 mg/L”, “of” for “of quercetin, quercetin 3-methyl ether, and”, “DMSO was” for “DMSO were”, “into a” for “into the”

[4] = test system: lung cancer cells A549; assay: in vitro cell proliferation inhibition (CCK-8); assay type: cell-based; conditions: 48 h incubation
Text: as §1
as §1, with “400 mg/L,” for “400 mg/L”, “of” for “of quercetin, quercetin 3-methyl ether, and”, “DMSO was” for “DMSO were”, “into a” for “into the”

[5] = test system: breast cancer cell line MDA-MB-231; assay: in vitro cell proliferation inhibition (CCK-8); assay type: cell-based; conditions: 48 h incubation
Text: as §1
as §1, with “400 mg/L,” for “400 mg/L”, “of” for “of quercetin, quercetin 3-methyl ether, and”, “DMSO was” for “DMSO were”, “into a” for “into the”

[6] = test system: Osteosarcoma cell line 143B; assay: in vitro cell proliferation inhibition (CCK-8); assay type: cell-based; conditions: 48 h incubation
Text: as §1
as §1, with “400 mg/L,” for “400 mg/L”, “of” for “of quercetin, quercetin 3-methyl ether, and”, “DMSO was” for “DMSO were”, “into a” for “into the”

[7] = test system: intestinal cancer cells Caco2; assay: in vitro cell proliferation inhibition (CCK-8); assay type: cell-based
Text: as §1
as §1, with “400 mg/L,” for “400 mg/L”, “of” for “of quercetin, quercetin 3-methyl ether, and”, “DMSO was” for “DMSO were”, “into a” for “into the”

[8] = test system: gastric cancer cell line BGC-823; assay: in vitro cell proliferation inhibition (CCK-8); assay type: cell-based
Text: as §1
as §1, with “400 mg/L,” for “400 mg/L”, “of” for “of quercetin, quercetin 3-methyl ether, and”, “DMSO was” for “DMSO were”, “into a” for “into the”

[9] = test system: gastric cancer cell line AGS; assay: in vitro cell proliferation inhibition (CCK-8); assay type: cell-based; conditions: 48 h incubation
Text: as §1
as §1, with “400 mg/L,” for “400 mg/L”, “of” for “of quercetin, quercetin 3-methyl ether, and”, “DMSO was” for “DMSO were”, “into a” for “into the”

[10] = test system: human prostate cancer cells PC3; assay: in vitro cell proliferation inhibition (CCK-8); assay type: cell-based; conditions: 48 h incubation
Text: as §1
as §1, with “400 mg/L,” for “400 mg/L”, “of” for “of quercetin, quercetin 3-methyl ether, and”, “DMSO was” for “DMSO were”, “into a” for “into the”

[11] = test system: Osteosarcoma cell line HOS; assay: in vitro cell proliferation inhibition (CCK-8); assay type: cell-based; conditions: 48 h incubation
Text: as §1
as §1, with “400 mg/L,” for “400 mg/L”, “of” for “of quercetin, quercetin 3-methyl ether, and”, “DMSO was” for “DMSO were”, “into a” for “into the”

[12] = test system: human thyroid cancer cell line BCPAP; assay: in vitro cell proliferation inhibition (CCK-8); assay type: cell-based; conditions: 48 h incubation
Text: as §1
as §1, with “400 mg/L,” for “400 mg/L”, “of” for “of quercetin, quercetin 3-methyl ether, and”, “DMSO was” for “DMSO were”, “into a” for “into the”

[13] = test system: breast cancer cell line T47D; assay: in vitro cell proliferation inhibition (CCK-8); assay type: cell-based; conditions: 48 h incubation
Text: as §1
as §1, with “400 mg/L,” for “400 mg/L”, “of” for “of quercetin, quercetin 3-methyl ether, and”, “DMSO was” for “DMSO were”, “into a” for “into the”

[14] = test system: mouse glioma cells BV-2; assay: in vitro cell proliferation inhibition (CCK-8); assay type: cell-based; conditions: BV2, 48 h incubation
Text: as §1
as §1, with “400 mg/L,” for “400 mg/L”, “of” for “of quercetin, quercetin 3-methyl ether, and”, “DMSO was” for “DMSO were”, “into a” for “into the”

[15] = test system: gastric cancer cell line SGC-7901; assay: in vitro cell proliferation inhibition (CCK-8); assay type: cell-based
Text: as §1
as §1, with “400 mg/L,” for “400 mg/L”, “of” for “of quercetin, quercetin 3-methyl ether, and”, “DMSO was” for “DMSO were”, “into a” for “into the”

[16] = test system: HepG2 transplanted tumors; assay: proliferation of HepG2 transplanted tumors in nude mice in vivo; set-up: species or system BALB/c nude mice; conditions: 10 mg/kg bw·d intraperitoneal; day 12
Method: BALB/c nude mice (5 to 6 weeks old), weighing 19 g to 22 g, were purchased from Shanghai Experimental Animal Center, Chinese Academy of Sciences. HepG2 cells were collected in a serum-free DMEM medium to make a cell suspension, and then the cell suspension was injected into an underarm area of each mouse, approximately 2.0×10^6 cells, one site per mouse. All mice were bred in the Experimental Animal Center of Zhejiang University, under the environment of 23° C. to 25° C., humidity 50% to 60%, and cycle of 12 h light illumination/dark 12 h. After tumor formation, the mice were randomly divided into 3 groups with 7 mice in each group. The model group was given saline by intraperitoneal injection; the positive drug group was given tegafur at 10 mg/kg bw·d by intraperitoneal injection; the treatment group was intraperitoneally injected with the quercetin 3,3′-dimethyl ether at 50 mg/kg bw·d. According to the change of tumor volume, after the tumor formed, intraperitoneal injection was conducted every 1 d to 2 d, the tumor volume was measured, and the body weight of the mice was weighed. When there was a significant difference in tumor volume between different treatment groups, the mice were sacrificed by cervical dislocation, and the tumor tissue was carefully peeled off, weighed, and calculated. The formulas were: tumor formation rate (%)=(number of tumor-forming mice in treatment group/number of tumor-forming mice in inoculation group)×100; tumor inhibition rate (%)=(average tumor weight in control group (g)−average tumor weight in administration group (g))/average tumor weight in control group (g)×100. Serum, liver, spleen, and kidney were collected and weighed.

COc1c(-c2ccc(O)c(O)c2)oc2cc(O)cc(O)c2c1=O [Quercetin 3-methyl ether, quercetin 3-methyl ether]
IC50 [1]: 58.45 µg/mL (≈ 185 µM)
IC50 [2]: 82.34 µg/mL (≈ 260 µM)
IC50 [3]: 377.08 µg/mL (≈ 1190 µM)
IC50 [4]: 252.27 µg/mL (≈ 798 µM)
IC50 [5]: 92.14 µg/mL (≈ 291 µM)
IC50 [6]: 210.34 µg/mL (≈ 665 µM)
IC50 ([7]; 48 h incubation): 215.61 µg/mL (≈ 682 µM)
IC50 ([8]; BGC823, 48 h incubation): 192.55 µg/mL (≈ 609 µM)
IC50 [9]: 117.04 µg/mL (≈ 370 µM)
IC50 [10]: 368.40 µg/mL (≈ 1160 µM)
IC50 [11]: 130.84 µg/mL (≈ 414 µM)
IC50 [12]: 157.67 µg/mL (≈ 499 µM)
IC50 [13]: 154.72 µg/mL (≈ 489 µM)
IC50 [14]: 288.00 µg/mL (≈ 911 µM)
IC50 ([15]; SGC7901, 48 h incubation): 123.94 µg/mL (≈ 392 µM)

O=c1[nH]c(=O)n(C2CCCO2)cc1F (stereo not shown) [tegafur, reference compound]
mortality of the mice [16]: all dead

O=c1c(O)c(-c2ccc(O)c(O)c2)oc2cc(O)cc(O)c12 [Quercetin, quercetin]
IC50 ([1]; Homo sapiens, read-out: IC50): 155 µg/mL (≈ 513 µM)
IC50 ([2]; Homo sapiens, read-out: IC50): 196 µg/mL (≈ 648 µM)
IC50 ([3]; read-out: IC50): > 400 µg/mL
IC50 ([4]; Homo sapiens, read-out: IC50): > 400 µg/mL
IC50 ([5]; Homo sapiens, read-out: IC50): 331 µg/mL (≈ 1090 µM)
IC50 ([6]; Homo sapiens, read-out: IC50): > 400 µg/mL
IC50 ([7]; Homo sapiens, Caco-2, 48 h incubation, read-out: IC50): > 400 µg/mL
IC50 ([8]; Homo sapiens, BGC-823, BGC823, 48 h incubation, read-out: IC50): > 400 µg/mL
IC50 ([9]; read-out: IC50): 329 µg/mL (≈ 1090 µM)
IC50 ([10]; Homo sapiens, read-out: IC50): > 400 µg/mL
IC50 ([11]; read-out: IC50): > 400 µg/mL
IC50 ([12]; Homo sapiens, read-out: IC50): 391 µg/mL (≈ 1290 µM)
IC50 ([13]; Homo sapiens, read-out: IC50): > 400 µg/mL
IC50 ([14]; Mus musculus, Glioma cell, read-out: IC50): > 400 µg/mL
IC50 ([15]; Homo sapiens, SGC-7901, SGC7901, 48 h incubation, read-out: IC50): > 400 µg/mL
